Drawing on article PMC7851594 (Genome Biology and Evolution, 2020), this text covers EC50 and IC50 for two compounds.

Experiment [1] has as its target T1, drT2R3a (Danio rerio, UniProt Q2AB30).
T1 sequence (Q2AB30 1-313): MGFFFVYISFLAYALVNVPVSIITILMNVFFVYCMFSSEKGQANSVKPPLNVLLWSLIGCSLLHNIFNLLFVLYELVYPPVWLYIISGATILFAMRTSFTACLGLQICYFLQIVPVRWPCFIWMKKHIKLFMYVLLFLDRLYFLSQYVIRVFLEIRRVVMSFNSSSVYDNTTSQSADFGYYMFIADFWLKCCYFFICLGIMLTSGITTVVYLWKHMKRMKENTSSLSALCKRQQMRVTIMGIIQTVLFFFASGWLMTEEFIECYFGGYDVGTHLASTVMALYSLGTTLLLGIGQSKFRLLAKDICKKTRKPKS
Format: cell-based.

Experiment [2] addresses T1, drT2R3a. Format: cell-based. This is another data set of the same source.

Regarding `CC[N+](CC)(CC(=O)Nc1c(C)cccc1C)Cc1ccccc1` [DB, Denatonium benzoate], at drT2R3a [1], the midpoint of the response, the EC50, lay at 230 ± 20 µM.

Take `O=C1NS(=O)(=O)c2ccccc21` [saccharin]: the midpoint of inhibition on drT2R3a [2], the IC50, lay at 920 ± 280 µM.
